Assay results from US6962945B2, “N-aryloxypropanolyl-N′-phenethyl-urea” (Council of Scientific and Industrial Research, priority 2004, dated 2005).
Entries after “also recorded” stand apart in the source; their conditions may differ.

Tested on: adult male Sprague Dawley rats
Assay: appetite suppressant activity on scheduled fed rat model of appetite
Format: in vivo
Details: 20 μmol/kg, by oral route; for decrease in food intake as compared to food intake in the control group: fat rich diet 3 h daily, 30 min prior to food; for change in gross behaviour: observed during the period of feeding
Method: The pharmacological evaluation of the test compounds of general formula 3 was carried out by the following protocol.
The appetite suppressant activity of test compounds was tested on scheduled fed rat model of appetite. The study was conducted in adult male Sprague Dawley rats, weighing 175-200 g on arrival). The animals were housed in transparent cages of Bayer Makrolon type 3118 measuring 425×266×180 with floor area 800 cm^2. In each cage one rat was kept. A special fat rich diet (Diet #12451, Research Diets, NJ, USA) was provided only for 3 h (11 am-2 pm) daily [no diet in rest of the period]. Water was provided for 24 h. Diet was weighed prior to and after observation period by an electronic [Digital display] balance. Food intake was recorded by calculating the difference between prior and after weight of diet. Rats were weighed weekly after feeding. Rats were provided 16 g of diet daily and within 12-14 days animals achieved base line food intake (12-14 g) with gain in body weight (230-250 g) indicating adaptation to scheduled feeding. Only those rats that adapted to schedule feeding were used in the study. Rat showing significant less food intake and weight gain as compared to others was excluded from the study.
Thereafter, tests compounds dissolved in 10% DMSO aqueous solution and given in dose of 20 μmol/kg, by oral route. The test compounds were administered 30 min prior to food. Each test compounds were given in 5 rats. Diet and water was weighed at hourly interval in control and compound treated rats. During the period of feeding the gross behavior of rat was also observed.
The significance of difference between the food intake of treated and control groups was determined by unpaired Student's test [Two tailed p value].

| Structure (SMILES) | decrease in food intake as compared to food intake in the control group [%] | change in water intake | change in gross behaviour | activity compared with Sibutramine |
| --- | --- | --- | --- | --- |
| CC(C)CC(N(C)C)C1(c2ccc(Cl)cc2)CCC1 (centres unmarked) [Sibutramine, reference compound] | 38.57 |  |  |  |
| COc1ccc(OCC(O)CNC(=O)NCCc2ccccc2)cc1 (centres unmarked) [compound 3j, N-[2-hydroxy-3-(4-methoxyphenoxy)propyl]-N′-2-phenethyl-urea] | 31.82 | did not cause any significant change | did not cause any significant change |  |
| OC(CNC(=S)NCCc1ccccc1)COc1ccc(C(F)(F)F)cc1 (centres unmarked) [compound 3n, N-[2-hydroxy-3-(4-trifluoromethylphenoxy)propyl]-N′-2-phenethyl-thiourea] | 28.4 | did not cause any significant change | did not cause any significant change |  |
| O=C(NCCc1ccccc1)NCC(O)COc1ccc(C(F)(F)F)cc1 (centres unmarked) [compound 3a, N-[2-hydroxy-3-(4-trifluoromethylphenoxy)propyl]-N′-2-phenethyl-urea] | 41.42 | did not cause any significant change | did not cause any significant change | comparable; also recorded: same activity as Sibutramine |
